According to ChEMBL document CHEMBL4334495, “Design and Biological Evaluation of m-Xylene Thioether-Stapled Short Helical Peptides Targeting the HIV-1 gp41 Hexameric Coiled-Coil Fusion Complex” (J Med Chem, 2019):
Starred links: 1 amine or outer side, 2 acyl side, 3 side chain; linkers in the order of their positions; H or OH if unused. Positions of bridges follow the written chain, without caps; N, C: chain ends. Non-standard residues stand in square brackets, D forms with d. Residues, ends and D or L forms follow the SMILES beside them. ξ: configuration not given here. mXylylene = c1cc(C[*:1])cc(C[*:2])c1; ξhCys = NC(CCS)C(=O)O

Experiments:
[1] = system: Human immunodeficiency virus 1; test: Antiviral activity against X4 tropic HIV-1 subtype-B 3B infected in human MT2 cells or CEMx174 5.25 M7 cells assessed as reduction in p24 Gag protein production at 24:1 compound to HP23 ratio measured at 4 days post-infection by ELISA; assay type: functional, cell-based, HIV-1 group M; conditions: Human immunodeficiency virus 1, 3B, 96 h
[2] = system: Human immunodeficiency virus 1; test: Antiviral activity against T2635 resistant HIV1 LAI harboring Q66R mutant infected in human MT2 cells or CEMx174 5.25 M7 cells assessed as reduction in p24 Gag protein production at 50:1 ratio of compound to HP23 measured at 4 days post infection by ELISA; assay type: functional, organism-based, M:B_Lai
[3] = system: Human immunodeficiency virus 1; test: Synergistic antiviral activity against X4 tropic HIV-1 subtype-B 3B infected in human MT2 cells or CEMx174 5.25 M7 cells assessed as reduction in p24 Gag protein production by measuring combination index at 24:1 compound to HP23 ratio measured at 4 days post-infection by ELISA; assay type: functional, HIV-1 group M
[4] = system: Human immunodeficiency virus 1; test: (§1) Antiviral activity against T20 resistant HIV1 NL4-3 harboring with V38E/N42T mutant infected in human MT2 cells or CEMx174 5.25 M7 cells assessed as reduction in p24 Gag protein production at 300:1 compound to HP23 ratio measured at 4 days post-infection by ELISA; assay type: functional, organism-based
[5] = system: Human immunodeficiency virus 1; test: (§2) Ratio of EC50 for antiviral activity against R5 tropic HIV-1 subtype-B Bal infected in human MT2 cells or CEMx174 5.25 M7 cells in absence of HP23 to EC50 for antiviral activity against R5 tropic HIV-1 subtype-B Bal infected in human MT2 cells or CEMx174 5.25 M7 cells at 6:1 compound to HP23 ratio; assay type: functional, HIV-1 group M
[6] = system: Human immunodeficiency virus 1; test: as §1, with “Synergistic antiviral” for “Antiviral”, “V38E/N42S” for “V38E/N42T”, “production by measuring combination index” for “production”, “3500:1” for “300:1”; assay type: functional
[7] = system: Human immunodeficiency virus 1; test: Ratio of EC50 for antiviral activity against HIV1 NL4-3 infected in human MT2 cells or CEMx174 5.25 M7 cells in absence of HP23 to EC50 for antiviral activity against HIV1 NL4-3 infected in human MT2 cells or CEMx174 5.25 M7 cells at 5:1 compound to HP23 ratio; assay type: functional
[8] = system: Human immunodeficiency virus 1; test: (§3) Synergistic antiviral activity against HIV1 NL4-3 infected in human MT2 cells or CEMx174 5.25 M7 cells assessed as reduction in p24 Gag protein production by measuring combination index at 20:1 compound to HP23 ratio measured at 4 days post-infection by ELISA; assay type: functional
[9] = system: Human immunodeficiency virus 1; test: (§4) Ratio of EC50 for antiviral activity against R5 tropic HIV-1 subtype-B Bal infected in human MT2 cells or CEMx174 5.25 M7 cells in absence of HP23 to EC50 for antiviral activity against R5 tropic HIV-1 subtype-B Bal infected in human MT2 cells or CEMx174 5.25 M7 cells at 24:1 compound to HP23 ratio; assay type: functional, HIV-1 group M
[10] = Metabolic stability in rat plasma assessed as parent compound remaining at 3 to 100 uM after 4 hrs by RP-HPLC analysis; assay type: ADME, cell-free; conditions: read-out: Stability
[11] = system: Human immunodeficiency virus 1; test: Ratio of EC50 for antiviral activity against T20 resistant HIV1 NL4-3 harboring with V38E/N42T mutant infected in human MT2 cells or CEMx174 5.25 M7 cells in absence of HP23 to EC50 for Antiviral activity against T20 resistant HIV1 NL4-3 harboring with V38E/N42T mutant infected in human MT2 cells or CEMx174 5.25 M7 cells at 600:1 compound to HP23 ratio; assay type: functional
[12] = system: Human immunodeficiency virus 1; test: as §3, with “against T20 resistant” for “against”, “NL4-3 harboring with V38E/N42S mutant” for “NL4-3”, “14000:1” for “20:1”; assay type: functional
[13] = system: Human immunodeficiency virus 1; test: Antiviral activity against X4 tropic HIV-1 subtype-B 3B infected in human MT2 cells or CEMx174 5.25 M7 cells assessed as reduction in p24 Gag protein production at 12:1 ratio of hCS6ERE to compound measured at 4 days post-infection by ELISA; assay type: functional, cell-based, HIV-1 group M; conditions: Human immunodeficiency virus 1, 3B, 96 h
[14] = system: Human immunodeficiency virus 1; test: as §2, with “hCS6ERE” for “HP23”, “6:1 ratio of hCS6ERE to” for “6:1”, “compound” for “compound to HP23 ratio”; assay type: functional, HIV-1 group M
[15] = system: Human immunodeficiency virus 1; test: Antiviral activity against X4 tropic HIV-1 subtype-B 3B infected in human MT2 cells or CEMx174 5.25 M7 cells assessed as reduction in p24 Gag protein production at 6:1 ratio of hCS6ERE to compound measured at 4 days post-infection by ELISA; assay type: functional, cell-based, HIV-1 group M; conditions: Human immunodeficiency virus 1, 3B, 96 h
[16] = system: Human immunodeficiency virus 1; test: Ratio of EC50 for antiviral activity against T2635 resistant HIV1 LAI harboring Q66R mutant infected in human MT2 cells or CEMx174 5.25 M7 cells in absence of hCS6ERE to antiviral activity against T2635 resistant HIV1 LAI harboring Q66R mutant infected in human MT2 cells or CEMx174 5.25 M7 cells at 12.5:1 ratio of hCS6ERE to compound; assay type: functional, M:B_Lai
[17] = molecular target: Envelope glycoprotein gp160 (Human immunodeficiency virus 1) (UniProt Q6QLK5); test: Ratio of EC50 for inhibition of HIV1 gp41-induced cell-cell fusion between viral envelope expressing human HL2/3 cells to CD4/CCR5 receptor expressing TZM-bl cells in absence of HP23 to EC50 for inhibition of HIV1 gp41-induced cell-cell fusion between viral envelope expressing human HL2/3 cells to CD4/CCR5 receptor expressing TZM-bl cells at 4:1 ratio of hCS6ERE to compound
Envelope glycoprotein gp160 (Human immunodeficiency virus 1), sequence (Q6QLK5 1-814): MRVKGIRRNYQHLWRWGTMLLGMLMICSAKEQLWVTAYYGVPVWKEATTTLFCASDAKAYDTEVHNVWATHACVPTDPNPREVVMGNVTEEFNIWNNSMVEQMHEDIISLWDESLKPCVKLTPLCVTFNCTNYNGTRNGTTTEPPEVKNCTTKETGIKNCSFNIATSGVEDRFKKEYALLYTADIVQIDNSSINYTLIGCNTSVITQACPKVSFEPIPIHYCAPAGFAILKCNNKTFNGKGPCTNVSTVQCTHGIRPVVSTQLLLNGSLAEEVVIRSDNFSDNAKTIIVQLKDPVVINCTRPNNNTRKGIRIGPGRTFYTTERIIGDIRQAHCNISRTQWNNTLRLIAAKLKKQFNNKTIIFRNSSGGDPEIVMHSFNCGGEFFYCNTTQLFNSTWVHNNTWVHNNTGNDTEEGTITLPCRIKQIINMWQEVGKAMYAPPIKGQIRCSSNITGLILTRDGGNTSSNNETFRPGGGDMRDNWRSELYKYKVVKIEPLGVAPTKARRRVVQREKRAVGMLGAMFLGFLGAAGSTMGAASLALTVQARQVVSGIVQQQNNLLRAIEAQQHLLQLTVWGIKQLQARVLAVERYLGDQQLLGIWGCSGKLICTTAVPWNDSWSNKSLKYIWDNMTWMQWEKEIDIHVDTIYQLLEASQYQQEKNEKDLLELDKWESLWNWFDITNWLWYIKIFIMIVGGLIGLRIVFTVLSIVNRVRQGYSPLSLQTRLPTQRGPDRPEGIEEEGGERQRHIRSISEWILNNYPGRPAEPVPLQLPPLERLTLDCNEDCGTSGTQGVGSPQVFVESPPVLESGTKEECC

[18] = system: Human immunodeficiency virus 1; test: as §4, with “X4” for “R5”, “3B” for “Bal”, “hCS6ERE” for “HP23”, “24:1 ratio of hCS6ERE to” for “24:1”, “compound” for “compound to HP23 ratio”; assay type: functional, HIV-1 group M
[19] = system: Human immunodeficiency virus 1; test: Antiviral activity against T20 resistant HIV1 NL4-3 harboring with V38E/N42S mutant infected in human MT2 cells or CEMx174 5.25 M7 cells assessed as reduction in p24 Gag protein production at 14000:1 hCS6ERE to compound ratio measured at 4 days post-infection by ELISA; assay type: functional, organism-based
[20] = system: Human immunodeficiency virus 1; test: Antiviral activity against T20 resistant HIV1 NL4-3 harboring with V38E/N42S mutant infected in human MT2 cells or CEMx174 5.25 M7 cells assessed as reduction in p24 Gag protein production at 3500:1 hCS6ERE to compound ratio measured at 4 days post-infection by ELISA; assay type: functional, organism-based
[21] = system: Human immunodeficiency virus 1; test: as §2, with “X4” for “R5”, “3B” for “Bal”, “hCS6ERE” for “HP23”, “12:1 ratio of hCS6ERE to” for “6:1”, “compound” for “compound to HP23 ratio”; assay type: functional, HIV-1 group M
[22] = system: Human immunodeficiency virus 1; test: Antiviral activity against T2635 resistant HIV1 LAI harboring Q66R mutant infected in human MT2 cells or CEMx174 5.25 M7 cells assessed as reduction in p24 Gag protein production at 50:1 ratio of hCS6ERE to compound measured at 4 days post infection by ELISA; assay type: functional, organism-based, M:B_Lai
[23] = system: Human immunodeficiency virus 1; test: Ratio of EC50 for antiviral activity against HIV1 NL4-3 infected in human MT2 cells or CEMx174 5.25 M7 cells in absence of hCS6ERE to EC50 for antiviral activity against HIV1 NL4-3 infected in human MT2 cells or CEMx174 5.25 M7 cells at 10:1 hCS6ERE to compound ratio; assay type: functional

Compound: CC[C@H](C)[C@H](NC(C)=O)C(=O)N[C@@H](CCC(=O)O)C(=O)N[C@@H](CCC(=O)O)C(=O)N[C@@H](CC(C)C)C(=O)N[C@H](C(=O)NC1CCSCc2cccc(c2)CSCCC(C(=O)N[C@@H](CCC(N)=O)C(=O)N[C@@H](CCC(N)=O)C(=O)N[C@@H](CCCNC(=N)N)C(=O)N[C@@H](CCCCN)C(=O)N[C@@H](CC(N)=O)C(=O)N[C@@H](CCC(=O)O)C(=O)N[C@@H](CCC(=O)O)C(=O)N[C@@H](C)C(=O)N[C@@H](CC(C)C)C(=O)N[C@@H](CCCNC(=N)N)C(=O)N[C@@H](CCC(=O)O)C(=O)N[C@@H](CC(C)C)C(N)=O)NC(=O)[C@H](CCC(N)=O)NC(=O)[C@H](C)NC(=O)[C@H](C)NC1=O)[C@@H](C)CC (stereo partly drawn) (Ac-IEELI[ξhCys]AAQ[ξhCys]QQRKNEEALREL-NH2; linker 6-10 via mXylylene)
- EC50 [1]: 17.3 nM
- EC50 [2]: 26.3 nM
- CI [3]: 0.9
- EC50 [4]: 433 nM
- Ratio EC50 [5]: 3.8
- CI [6]: 0.7
- Ratio EC50 [7]: 5
- CI [8]: 0.8
- Ratio EC50 [9]: 2.6
- remaining at 4 h, up to 100 µM [10]: 100%
- Ratio EC50 [11]: 2.2
- CI [12]: 0.6

Compound: H-EMTWEEWEKKIEEYTKKIEEILK-OH
- EC50 [13]: 0.9 nM
- Ratio EC50 [14]: 1.9
- EC50 [15]: 1.3 nM
- Ratio EC50 [16]: 2.7
- Ratio EC50 [17]: 6.2
- Ratio EC50 [18]: 3.6
- EC50 [19]: 0.2 nM
- EC50 [20]: 0.6 nM
- Ratio EC50 [21]: 2.8
- EC50 [22]: 0.5 nM
- Ratio EC50 [23]: 3.8
